From patent publication US7119105B2, “Methods for treating neurodegenerative disorders using aspartyl protease inhibitors” (The Regents of the University of California, priority 1997, dated 2006) come the findings set out here.

Assay type in all cases: cell-based, rat
The test system of one experiment is 29 kDa APP fragment. The experiment is described as follows: APP fragment in entorhinohippocampal slice cultures (immunoblot, anti-C APP643-695). As to conditions: six days; ZPAD 20 μM, CEL5-172 10 μM; vs control. Here is the method:
Organotypic entorhinohippocampal cultures were prepared using the technique of Stoppini, et al., J. Neurosci. Methods, 37, 173–182 (1991). Briefly, the caudal pole of the cerebral hemisphere containing the entorhinal cortex and hippocampus were harvested from brains of 6–7 days old Sprague-Dawley rat pups under sterile condition. 400 μm horizontal entorhinohippocampal sections cut vertical to the long axes of hippocampus were obtained using a McIlwain tissue chopper in a cutting medium consisting of MEM (with Earle's salts, Gibco), 25 mM HEPES, 10 mM Tris Base, 10 mM Glucose, and 3 mM MgCl2 (pH 7.2). […]
For western blot, entorhinohippocampal explants were collected and sonicated in 10 mM Tris-HCl buffer (pH 7.4) containing 0.32 M sucrose, 2 mM EDTA, 2 mM EGTA, and 0.1 mM leupeptin. […] Immunoblots were scanned, and the digitized images were quantitatively analyzed by densitometry using the NIH Image analysis system program. […]

The test system of experiment [1] is native (unphosphorylated) tau. The experiment is described as follows: Native tau isoforms and 29 kDa fragment in hippocampal slice cultures, tau 1 Western blot. As to conditions: ZPAD six-day treatment, tau 1 antibody. The protocol:
(§1) Organotypic hippocampal cultures were prepared using the technique of Stoppini, et al. (J. Neurosci. Meth., 37:173–182 (1991)). Briefly, hippocampi were harvested from brains of 9–11 days old Sprague-Dawley rat pups under sterile condition. Horizontal sections vertical to the long axis of hippocampus were cut at 400 μm and collected in a cutting medium consisting of MEM (with Earle's salts, Gibco), 25 mM HEPES, 10 mM Tris Base, 10 mM Glucose, and 3 mM MgCl2 (pH 7.2). Slices were positioned onto 30 mm cell culture inserts (Millicell-CM, Millipore, Bedford, Mass.) that were placed in 6 well culture trays with 1 ml of growth medium (MEM with Hank's salts, Gibco, 20% horse serum, 3 mM glutamine, 25 mM HEPES, 5 mM NaHCO3, 25 mM glucose, 0.5 mM ascorbate, 2 mM CaCl2, 2.5 mM MgCl2, 0.5 mg/l insulin, and penicillin, pH 7.2; 9). […]
(§2) Experiments were carried out using a yoked design in which one of the six culture trays was always used as a control and values for experimentally treated slices were expressed as percents of the same plate control. […]
(§3) Hippocampal slices were collected and sonicated in 10 mM Tris-HCl buffer (pH 7.4) containing 0.32 M sucrose, 2 mM EDTA, 2 mM EGTA, and 0.1 mM leupeptin. […] Immunoblots were scanned and the digitized images were quantitatively analyzed by densitometry using the NIH Image analysis system program.

Experiment [2] concerns hyperphosphorylated tau fragments (tau 29). The experiment is described as follows: Hyperphosphorylated tau fragments (tau 29) in hippocampal slice cultures, AT8 Western blot. The protocol:
Organotypic hippocampal cultures were prepared using the technique of Stoppini, et al. (J. Neurosci. Meth., 37:173–182 (1991)). Briefly, hippocampi were harvested from brains of 9–11 days old Sprague-Dawley rat pups under sterile condition. Horizontal sections vertical to the long axis of hippocampus were cut at 400 μm and collected in a cutting medium consisting of MEM (with Earle's salts, Gibco), 25 mM HEPES, 10 mM Tris Base, 10 mM Glucose, and 3 mM MgCl2 (pH 7.2). Slices were positioned onto 30 mm cell culture inserts (Millicell-CM, Millipore, Bedford, Mass.) that were placed in 6 well culture trays with 1 ml of growth medium (MEM with Hank's salts, Gibco, 20% horse serum, 3 mM glutamine, 25 mM HEPES, 5 mM NaHCO3, 25 mM glucose, 0.5 mM ascorbate, 2 mM CaCl2, 2.5 mM MgCl2, 0.5 mg/l insulin, and penicillin, pH 7.2; 9). The cultures were incubated at 35° C. with a 5% CO2-enriched atmosphere with medium changed every other day until use. Incubations were carried out for 14 days before the start of experiments. This period is sufficient for the slices to take on a variety of adult characteristics (Bahr, J Neurosci Res., 42:294–305 (1995); and Muller, et al., Dev. Brain Res., 71:93–100 (1993)).
Experiments were carried out using a yoked design in which one of the six culture trays was always used as a control and values for experimentally treated slices were expressed as percents of the same plate control. Hippocampal slice cultures were exposed to medium containing one of three cathepsin D inhibitors (see, below) or to ‘ZPAD’ (N-CBZ-L-phenylalanyl-L-alanine-diazomethylketone), a selective inhibitor of cathepsins B and L (Green, et al., J. Biol. Chem., 256:1923–1928 (1981); Richardson, et al., J. Cell Biol., 107:2097–2107 (1988); and Shaw, et al., Biochem. J., 186:385–390 (1980)). […]
as §3
(A western blot detects proteins with antibodies after separation by electrophoresis.)

For another experiment, the system named is cathepsin D isoforms. The experiment in a line: Cathepsin D isoforms in hippocampal slice cultures, Western blot. As to conditions: ZPAD alone. The protocol:
as §1, §2, §3

Experiment [3] relates to phosphorylated tau fragment. The experiment in a line: Phosphorylated tau fragments in entorhinohippocampal slice cultures (immunoblot). The conditions noted are these: six days; ZPAD 20 μM, CEL5-172 10 μM, EA-1 1 μM; vs control.
Protocol: Briefly, the caudal pole of the cerebral hemisphere containing the entorhinal cortex and hippocampus were harvested from brains of 6–7 days old Sprague-Dawley rat pups under sterile condition. 400 μm horizontal entorhinohippocampal sections cut vertical to the long axes of hippocampus were obtained using a McIlwain tissue chopper in a cutting medium consisting of MEM (with Earle's salts, Gibco), 25 mM HEPES, 10 mM Tris Base, 10 mM Glucose, and 3 mM MgCl2 (pH 7.2). Brain tissue explants were then planted onto 30 mm cell culture inserts (Illicell-CM, Millipore, Bedford, Mass.) that were placed in 6 well culture trays with 1 mL of growth medium (MEM with Hank's salts, Gibco, 20% horse serum, 3 mM glutamine, 25 mM HEPES, 5 mM NaHCO3, 25 mM glucose, 0.5 mM ascorbate, 2 mM CaCl2, 2.5 mM MgCl2, 0.5 mg/L insulin, and penicillin, pH 7.2; Bi, et al., J. Comp. Neuro., 401, 382–394 (1998). The cultures were incubated at 35° C. with a 5% CO2-enriched atmosphere and fed every other day until use.

On to “N-CBZ-L-phenylalanyl-L-alanine-diazomethylketone [ZPAD]”, for which the “concentration of 29 kDa APP fragment, inhibitor by itself” value in the experiment with 29 kDa APP fragment is recorded as “increases”. The “increase in 29 kDa fragments” value in experiment [1] stood at 101%. Also, in experiment [1] (n=8), the “reduction of native tau concentrations (four isoforms) from yoked controls” value was 19–32%. Also, the “effect on tau 29 concentration, inhibitor by itself” value in experiment [2] (2-6 days, CEL5 5 μM, EA-1 at concentrations tested, ZPAD 20 μM) was “increased”. The “increase in the hyperphosphorylated tau fragment (mean±s.e.m.)” value in experiment [2] (ZPAD 20 μM by itself, 6 days, vs yoked control, 5 experiments) was determined as 104±18%. In addition, in experiment [2] (earliest time point tested), the “time at which ZPAD induced increases in phosphorylated tau fragment appeared” value amounted to 48 h. Moreover, the “increase in heavy chain isoform of cathepsin D” value in the experiment on cathepsin D isoforms came out at 70%. The “effect on procathepsin D” value in the experiment on cathepsin D isoforms (6 days) is on record as “modest increases”. For the same substance, the “concentration of phosphorylated tau fragment, inhibitor by itself” value in experiment [3] is reported as “increases”.
